The results in this text go back to ChEMBL document CHEMBL1126148, “Synthesis of halogenated trimetoquinol derivatives and evaluation of their beta-agonist and thromboxane A2 (TXA2) antagonist activities” (J Med Chem, 1992).

The species named for one assay is Rattus norvegicus. The assay can be described thus: (§1) Potency ratio was measured as EC50 (trimetoquinol )/EC50 (drug). In kind it is functional.
The species named for a further assay is Homo sapiens. Described as §1. It counts as functional.
Assay [1] deals with T1, Beta-2 adrenergic receptor (Cavia porcellus, UniProt Q8K4Z4). The assay can be described thus: Agonist activity at Beta-2 adrenergic receptor in guinea pig trachea after treatment with the compound.
Assay [2] has as its target T2, Thromboxane A2 receptor (Rattus norvegicus) (UniProt P34978).
T2 sequence (whole entry): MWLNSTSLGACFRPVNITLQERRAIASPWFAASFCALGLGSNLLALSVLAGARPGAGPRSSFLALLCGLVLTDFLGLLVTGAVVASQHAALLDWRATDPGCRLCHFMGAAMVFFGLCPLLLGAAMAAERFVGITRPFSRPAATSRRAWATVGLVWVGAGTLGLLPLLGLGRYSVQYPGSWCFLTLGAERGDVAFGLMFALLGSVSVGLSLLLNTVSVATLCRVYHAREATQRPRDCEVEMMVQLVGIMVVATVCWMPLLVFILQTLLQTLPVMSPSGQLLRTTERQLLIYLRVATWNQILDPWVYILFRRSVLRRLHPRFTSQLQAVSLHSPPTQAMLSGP
The assay can be described thus: (§2) Inhibitory activity against […]-mediated contraction of rat thoracic aorta (Thromboxane A2 tau receptor). In kind it is tissue-based.

For assay [3], the target named is T3, Beta-1 adrenergic receptor (Cavia porcellus, UniProt B0FL73). As to the kind of experiment: (§3) Inhibitory activity against Beta-1 adrenergic receptor in guinea pig atria after treatment with the compound.
For assay [4], the target named is T2, Thromboxane A2 receptor (Rattus norvegicus). The description is as §2. It counts as functional, tissue-based.
Assay [5] concerns the target Beta-1 adrenergic receptor (Cavia porcellus) (UniProt B0FL73). The assay can be described thus: Maximum response of drug relative to the response of 10e-5 isoproterenol after treatment with the compound. It counts as functional.
For assay [6] the target is unchanged. The assay is described as §3.
For assay [7], the target named is T1, Beta-2 adrenergic receptor. As to the kind of experiment: Binding affinity against Beta-2 adrenergic receptor in guinea pig lung membranes. It counts as cell membranes, Membrane.
Assay [8] has as its target T3, Beta-1 adrenergic receptor. The assay can be described thus: Binding affinity against Beta-1 adrenergic receptor in guinea pig left ventricle.

SMILES strings stand for the structures.

T1 sequence (Q8K4Z4 whole entry): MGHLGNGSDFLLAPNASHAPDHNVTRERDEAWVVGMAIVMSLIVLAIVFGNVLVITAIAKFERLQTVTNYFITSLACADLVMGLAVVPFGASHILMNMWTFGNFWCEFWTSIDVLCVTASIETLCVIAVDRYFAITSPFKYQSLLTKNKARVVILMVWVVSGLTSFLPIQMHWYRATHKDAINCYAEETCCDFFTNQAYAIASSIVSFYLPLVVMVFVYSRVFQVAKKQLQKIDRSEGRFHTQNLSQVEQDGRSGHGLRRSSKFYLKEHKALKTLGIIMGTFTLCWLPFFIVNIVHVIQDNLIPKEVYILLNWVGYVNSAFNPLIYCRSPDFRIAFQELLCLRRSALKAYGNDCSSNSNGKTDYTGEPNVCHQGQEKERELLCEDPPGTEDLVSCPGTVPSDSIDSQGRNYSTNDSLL
T3 sequence (B0FL73 whole entry): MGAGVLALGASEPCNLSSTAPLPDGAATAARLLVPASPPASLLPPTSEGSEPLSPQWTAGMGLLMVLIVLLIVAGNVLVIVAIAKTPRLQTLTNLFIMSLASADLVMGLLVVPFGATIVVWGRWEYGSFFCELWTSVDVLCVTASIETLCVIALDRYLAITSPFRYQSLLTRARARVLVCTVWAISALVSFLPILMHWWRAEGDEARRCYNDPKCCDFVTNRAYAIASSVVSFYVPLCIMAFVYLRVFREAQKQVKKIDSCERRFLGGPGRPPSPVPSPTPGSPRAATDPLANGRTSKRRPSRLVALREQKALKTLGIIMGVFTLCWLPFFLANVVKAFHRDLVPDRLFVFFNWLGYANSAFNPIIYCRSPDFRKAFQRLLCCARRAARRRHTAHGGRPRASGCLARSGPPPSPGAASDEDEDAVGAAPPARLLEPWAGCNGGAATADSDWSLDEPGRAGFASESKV
Sequence of Beta-1 adrenergic receptor (Cavia porcellus) (B0FL73 1-467): as the sequence (B0FL73 whole entry) above

Take `COc1cc(CC2NCCc3c(F)c(O)c(O)c(F)c32)cc(OC)c1OC` (configuration not stated): the values for the Potency ratio in the assay filed under Rattus norvegicus and in the assay filed under Homo sapiens were 0.00708 and 0.00277, respectively. Further, the EC50 in assay [1] is 240 nM; in assay [3] it was 501 nM. The pKB in [2] stood at 3.98.

For `COc1cc(C[C@H]2NCCc3cc(O)c(O)c(F)c32)cc(OC)c1OC`, in [4], the pKB was found to be 5.63.

As for `COc1cc(CC2NCCc3c2cc(O)c(O)c3I)cc(OC)c1OC` (configuration not stated), in assay [5], the Intrinsic activity stood at 0.39. The Potency ratio in the assay filed under Rattus norvegicus turned out to be 0.07; in the assay filed under Homo sapiens, 0.002. The figures for the EC50 in assay [1] and in assay [3] were 2240 nM and greater than 31600 nM, respectively. In addition, in assay [2], the pKB is 4.31.

In assay [5], `COc1cc(CC2NCCc3cc(O)c(O)c(I)c32)cc(OC)c1OC` (configuration not stated) had an Intrinsic activity of 0.81. Moreover, the Potency ratio in the assay filed under Rattus norvegicus is 0.24; in the assay filed under Homo sapiens, 0.09. For the same compound, the EC50 is 1170 nM in assay [1] and 2950 nM in assay [3]. The pKB in [2] came out at 4.84.

As for `COc1cc(CC2NCCc3c2cc(O)c(O)c3C(F)(F)F)cc(OC)c1OC` (configuration not stated), the pKB came out at 5.32 in assay [6] and 3.7 in assay [2]. Moreover, the Potency ratio came out at 0.00372 in the assay listed under Rattus norvegicus and 0.000525 in the assay filed under Homo sapiens.

Turning to `COc1cc(C[C@@H]2NCCc3cc(O)c(O)cc32)cc(OC)c1OC` [TRETOQUINOL], the pKB in assay [4] came to 5.46. Further, the figures for the EC50 in assay [1] and in assay [3] were 26.3 nM and 174 nM, respectively. Moreover, the Ki in [7] is 49 nM; in assay [8], 87.1 nM.

As usually defined, the EC50 is the concentration giving half of the maximal effect. Broadly, the pKB is the negative decadic logarithm of the KB, by convention in mol/L. Higher therefore signals a small KB. Usually Ki stands for the dissociation constant of the complex between target and ligand, obtained from inhibition or displacement. Low values mean a stronger hold on the target, high ones a looser hold on the target.
